Test results as given in article PMC5882848, “Structural basis of interaction between dimeric cyclophilin 1 and Myb1 transcription factor in Trichomonas vaginalis” (Scientific Reports, 2018).
Entries after “also recorded” stand apart in the source; their conditions may differ.

Columns and labels:
[1] = target: Cyclophilin 1 (TvCyP1) of Trichomonas vaginalis (Trichomonas vaginalis); experiment: SEC-MALS; 300 μg TvCyP1 (3 mg/mL) on ENrich SEC 70 column; 20 mM monosodium phosphate, 50 mM NaCl, 0.5 mM NaN3, pH 6.0, 25 °C
[2] = target: FITC-labeled Myb1^104–111 peptide (Trichomonas vaginalis); experiment: fluorescence polarisation
[3] = target: Cyclophilin 1 (TvCyP1) of Trichomonas vaginalis (Trichomonas vaginalis); experiment: AUC; sedimentation velocity, 29 μM TvCyP1 (legend: 30 μM), 20 °C, 50,000 rpm; 20 mM monosodium phosphate, 50 mM NaCl, 0.5 mM NaN3, pH 6.0; Sedfit
[4] = cited from earlier work
Text: Nuclear translocation of Myb1 is an important step regulating the expression of disease causing ap65–1 gene. […] Moreover, CsA is not specific to any of the isof ...

TvCyP1 = experiment: NMR ROESY cis/trans isomerization (PPIase) of P107 in Myb1^104–111; type: biochemical, Trichomonas vaginalis
Protocol: ^1H-TOCSY, ^1H-COSY and ^1H-NOESY were performed at 300 K with a mixing time of 75 ms (TOCSY) and 300 ms (NOESY) on the Myb1^104–111 peptide to complete the assignment of proton resonances. The peptide was dissolved in 20 mM monosodium phosphate, 50 mM NaCl, 0.5 mM NaN3 (pH 6.0) to obtain a concentration of 2 mM. All ROESY experiments were performed at 300 K with 300 ms mixing time. […]

cyclophilins = conditions: binding to the active site; cited from earlier work
Text: Catalytically active cyclophilins with a single cyclophilin domain reported till now are monomeric in nature.

isoforms of cyclophilins = tested on: isoforms of cyclophilins; set-up: method as in PMID 20676357; conditions: cited from earlier work
parasite = conditions: cited from earlier work
Text: In most cases, the biological substrates of these cyclophilins are unknown and extensive structural studies on cyclophilin- substrate interactions have not been reported.

Q: With “Cyclophilin 1 (TvCyP1) of Trichomonas vaginalis (enzyme)” as the compound, how does the stoichiometry N [1] read?
A: Its stoichiometry N is 2.

Q: And the Kd [2]?
A: Its Kd is 16.8 µM.

Q: And the stoichiometry N [3]?
A: The stoichiometry N was 2.

Q: Which immunosuppressive activity [4] does the source give for cyclosporin A [CsA] here?
A: Its immunosuppressive activity is “deleterious effect of its immunosuppressive activity”.

Q: What about the “inhibition of TvCyP1 isomerase activity” value (TvCyP1; ROESY, 300 ms mixing time, 300 K, pH 6.0, CsA 22 μM (1.0 molar equivalent), 4.4 mM Myb1^104–111, 22 μM TvCyP1) of the same compound?
A: Its value is “hindered catalysis; also recorded: loss of the exchange cross-peaks between cis and trans resonances”.

Q: And the “inhibition of Myb1^104–111 binding to TvCyP1 active site” value (TvCyP1; from ROESY experiments, CsA)?
A: The value was “can inhibit Myb1^104–111 binding to the active site”.

Q: What about the “inhibition of PPIase activity of cyclophilins” value (cyclophilins) of the same compound?
A: The value was “PPIase activity of cyclophilins can be inhibited”.

Q: What about the isoform specificity (isoforms of cyclophilins) of the same compound?
A: Its isoform specificity is “not specific to any of the isoforms of cyclophilins”.

Q: What about the anti-parasitic activity (parasite) of the same compound?
A: Its anti-parasitic activity is “have been found with anti-parasitic activity”.

Q: Which “inhibition of PPIase activity of cyclophilins” value (cyclophilins) does the source give for `CC[C@H]1C[C@H](C)[C@@]2(NC1=O)O[C@@H](C[C@H](O)[C@@H](C)CC/C=C/C=C(\C)[C@@H]1C/C=C/C=C/[C@H](O)[C@H](C)[C@@H](O)[C@@H](CCC(C)=O)C(=O)N[C@@H](C(C)C)C(=O)N[C@@H](Cc3cccc(O)c3)C(=O)N3CCC[C@H](N3)C(=O)O1)[C@H](C)[C@H](O)[C@@H]2C` [sanglifehrin A (SfA), sanglifehrin A] here?
A: Its value is “PPIase activity of cyclophilins can be inhibited”.
